In patent US12447238B2, “Antimicrobial tubular conduits” (SANIDRINK S.R.L., priority 2020, dated 2025):
Values after ≈ are worked out from the molar mass of the structure shown. Peptide text beside a SMILES is read from it.

Assays:
[1] = system: L. monocytogenes (LM2) (field strain); test: Minimum Bactericidal Concentration (MBC) against L. monocytogenes; format: cell-based, Listeria monocytogenes; details: 99.9% inhibition of bacterial growth on plates
Method: (§1) The evaluation of the Minimum Bactericidal Concentration (MBC), i.e., the lowest concentration of antimicrobial agent capable of 99.9% inhibition of bacterial growth on plates, was carried out as described in Bilikova et al, (2015, Peptides 68:190-196).

Salmonella = test: Bactericidal activity of AMP peptides at 15 μM (CFU vs control), Salmonella; format: cell-based; details: peptide 15 μM
Method: (§2) The bactericidal activity of further AMP peptides used in the invention, in particular of the RiLK31 peptide (RLRWVKIWKK, SEQ ID NO:31) and the RiLK3 peptide (RLRWVRIWRR, SEQ ID NO:3), was tested. The bactericidal activity was expressed as a percentage of viable cells in terms of CFU (Colony Forming Units) in a bacterial sample exposed to each peptide compared to those in a control bacterial sample in the absence of the peptide. All tests were carried out with the same peptide concentration, corresponding to 15 μM.

E. coli = test: Bactericidal activity of AMP peptides at 15 μM (CFU vs control), E. coli; format: cell-based; details: peptide 15 μM
Method: as §2

[2] = system: Aspergillus brasiliensis (ATCC 9341); format: cell-based
Method: The antifungal activity of the RiLK1 peptide was determined against Aspergillus brasiliensis. For this purpose, a stock culture was prepared in which 10^5 CFUs of A. brasiliensis were inoculated in 10 ml of buffered peptone water. A reference strain (ATCC 9341) was used for this fungal species. The culture was incubated for 6 h at 37° C. with the RiLK1 peptide at 25 μM concentrations.
At the same time, control samples were incubated without adding the peptide. 100 μl of the samples thus prepared were seeded on DG18 plates (Dichloran 18% Glycerol Agar—ISO 21527-2) and incubated at 25° C. for 7 days.
(§3) All experimental conditions investigated used the plate count method to estimate the fungicidal activity of the peptide. Specifically, the numbers of colonies grown on agar plates seeded with the fungal suspensions in the absence or presence of the individual peptide dilutions were counted and compared. The standard deviations of the triplicate incubations of each plate were determined using statistical software. The evaluation of the Minimum Fungicidal Concentration (MFC), i.e., the lowest concentration of antifungal agent capable of 99.9% inhibition of fungal growth on plates, was carried out as described in Bilikova et al, (2015, Peptides 68:190-196).

Staphylococcus = test: Bactericidal activity of AMP peptides at 15 μM (CFU vs control), Staphylococcus; format: cell-based; details: peptide 15 μM
Method: as §2

[3] = system: L. monocytogenes (LM2) (field strain); test: IC50 by broth microdilution and plate count against L. monocytogenes; format: cell-based, Listeria monocytogenes; details: 6 hours at 37° C. in Fraser Broth, plate count
Method: (§4) The bactericidal activity of RiLK1 peptides was assessed against both Gram positive (Listeria monocytogenes LM2 and Staphylococcus aureus) and Gram negative (Salmonella typhimurium and Escherichia coli) pathogenic bacteria.
(§5) The assessment of the concentration of RiLK1 peptides capable of inhibiting 50% of bacterial growth (IC50) was performed by the broth microdilution assay as described in Wang HX and Ng TB (2003, Peptides 24:969-972).
(§6) Standard deviations were obtained from triplicate experiments for each peptide dilution, and the IC50s were determined using GraphPad Prism version 6.00 (Graph-Pad Software, La Jolla California USA).
(§7) All bactericidal activity assays were performed using 2-3 log CFUs (Colony Forming Units), which represents a realistic approximation of the contamination levels that may be contained in the tubular conduits for food or medical use.
All experimental conditions investigated used the plate count method to estimate the bactericidal activity of the peptides. Specifically, the numbers of colonies grown on agar plates seeded with the bacterial suspensions in the absence or presence of the individual peptide dilutions were counted and compared. Standard deviations were determined using statistical software. […]

Listeria = test: Bactericidal activity of AMP peptides at 15 μM (CFU vs control), Listeria; format: cell-based; details: peptide 15 μM
Method: as §2

[4] = system: Candida albicans (ATCC 14053); format: cell-based
Method: The inhibitory activity of the RiLK1 peptide was determined against the yeast Candida albicans. A stock culture was prepared in which 10^5 CFUs of C. albicans were inoculated in 10 ml of buffered peptone water. A reference strain (ATCC 14053) was used for this species. The culture was incubated for 6 h at 37° C. with the RiLK1 peptide at 25 μM concentrations. At the same time, control samples were incubated without adding the peptide. 100 μl of the samples thus prepared were seeded on DG18 plates (Dichloran 18% Glycerol Agar—ISO 21527-2) and incubated at 25° C. for 7 days.
as §3, with “antimycotic” for “fungicidal”, “cultures” for “fungal suspensions”

E. coli (ATCC) [5] = format: cell-based, Escherichia coli; details: 6 h
Method: as §4, §5, §6, §7
All experimental conditions investigated used the plate count method to estimate the bactericidal activity of the peptides. Specifically, the numbers of colonies grown on agar plates seeded with the bacterial suspensions in the absence or presence of the individual peptide dilutions were counted and compared. Standard deviations were determined using statistical software.
A control stock suspension was prepared in which 10^3 CFUs of E. coli were inoculated in 10 ml of BPW (Oxoid, Basingstoke, UK). […]

E. coli (ATCC) [6] = test: Minimum Bactericidal Concentration (MBC) against E. coli; format: cell-based, Escherichia coli; details: 99.9% inhibition of bacterial growth on plates
Method: as §1

Row | Compound | MBC [1] [µM] | bactericidal activity expressed as a percentage of viable cells (CFU) vs control (Salmonella) [%] | bactericidal activity expressed as a percentage of viable cells (CFU) vs control (E. coli) [%] | post-treatment decrease in the fungal load ([2]; A. brasiliensis, 25 μM peptide, 6 h at 37° C.) [Log] | Drop Log CFU/ml ([2]; A. brasiliensis, 10^5 CFUs, 25 μM peptide, 6 h at 37° C.) [Log CFU/ml] | MFC ([2]; ATCC 9341, 6 h) | bactericidal activity expressed as a percentage of viable cells (CFU) vs control (Staphylococcus) [%] | IC50 [3] [µM] | bactericidal activity expressed as a percentage of viable cells (CFU) vs control (Listeria) [%] | MFC ([4]; ATCC 14053, 6 h) | post-treatment decrease in the fungal load ([4]; C. albicans, 25 μM peptide, 6 h at 37° C.) [Log] | Drop Log CFU/ml ([4]; C. albicans, 10^5 CFUs, 25 μM peptide, 6 h at 37° C.) [Log CFU/ml] | IC50 (E. coli (ATCC) [5]) [µM] | MBC (E. coli (ATCC) [6]) [µM]
1 | CC[C@H](C)[C@H](NC(=O)[C@H](CCCNC(=N)N)NC(=O)[C@@H](NC(=O)[C@H](Cc1c[nH]c2ccccc12)NC(=O)[C@H](CCCCN)NC(=O)[C@H](CC(C)C)NC(=O)[C@@H](N)CCCNC(=N)N)C(C)C)C(=O)N[C@@H](Cc1c[nH]c2ccccc12)C(=O)N[C@@H](CCCNC(=N)N)C(=O)N[C@@H](CCCNC(=N)N)C(N)=O [RiLK1, RLKWVRIWRR] (H-RLKWVRIWRR-NH2; N-terminus assumed) | 2 (≈ 2.94 µg/mL) | 100 | 100 | 5 | 5 | less than or equal to 25 μM | 96.9 | 0.46 | 99.5 | less than or equal to 25 μM | 5 | 5 | 1.2 | 2 (≈ 2.94 µg/mL)
2 | RLRWVKIWKK (AMP) [RiLK31] | – | 100 | 100 | – | – | – | 83 | – | 98.8 | – | – | – | – | –
3 | RLRWVRIWRR (AMP) [RiLK3] | – | 100 | 100 | – | – | – | 96 | – | 99 | – | – | – | – | –
